Key:
Experiment in all cases: Protein PIM kinase assay (ADP Hunter Plus)
Type in all cases: biochemical
Details in all cases: 100 μM ATP, 100 μM PIMtide
PIM-1 = target: T1, PIM-1 (Homo sapiens, UniProt P11309)
T1 construct: made in house
Description: (§1) PIM kinase activities were measured by using the commercial ADP Hunter™ Plus assay (DiscoveRx Ref. #33-016), a homogeneous assay measuring ADP accumulation, as a universal product of kinase activity. PIM-1 and PIM-2 proteins were obtained by purification as it is described by Martinez-Gonzalez et. al. Eur. J. Med Chem. 2019, 168, 87-109 and PIM-3 was acquired from Millipore (Cat #14-738). The assay was done following general manufacturer recommendations and adapting protein and substrates concentrations to optimal conditions. Kinase buffer was 15 mM HEPES, pH 7.4, 20 mM NaCl, 1 mM EGTA, 0.02% Tween-20, 10 mM MgCl2 and 0.1 mg/mL LBGG (bovine y-globulin). All PIM kinases assays were done at 100 μM PIM tide (ARKRRRHPSGPPTA), as peptide substrate, and 100 μM ATP. Protein concentration was 50, 350 and 200 pg/μl for PIM-1, 2 and 3, respectively. In order to calculate the IC50 of described compounds, serial 1:3 dilutions were prepared and the reaction started by addition of ATP. Incubation was done for 1 h at 25° C. Reagents A and B (DiscoveRx) were sequentially added to the wells and plates were incubated for 30 min at 37° C. Fluorescence counts were read in a Victor instrument (Perkin Elmer) with the recommended settings (544 and 580 nm as excitation and emission wavelengths, respectively). Values were plot against inhibitor concentration and fit to a sigmoid dose-response curve using Activity Base software from IDBS.

PIM-2 = target: T2, PIM-2 (Homo sapiens, UniProt Q9P1W9)
T2 construct: made in house
Description: as §1

PIM-3 = target: T3, PIM-3 (Homo sapiens, UniProt Q86V86)
T3 construct: purchased Millipore 14-738
Description: as §1

T1 sequence (P11309 whole entry): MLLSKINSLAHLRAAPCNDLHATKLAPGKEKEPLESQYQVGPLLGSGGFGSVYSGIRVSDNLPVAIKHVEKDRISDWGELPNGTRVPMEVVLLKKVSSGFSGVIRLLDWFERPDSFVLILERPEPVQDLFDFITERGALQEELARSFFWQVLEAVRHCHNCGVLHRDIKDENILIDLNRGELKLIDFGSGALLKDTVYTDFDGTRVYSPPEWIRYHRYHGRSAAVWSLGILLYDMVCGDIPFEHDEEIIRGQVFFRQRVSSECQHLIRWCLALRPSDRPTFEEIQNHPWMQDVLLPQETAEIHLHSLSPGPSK
T2 sequence (Q9P1W9 whole entry): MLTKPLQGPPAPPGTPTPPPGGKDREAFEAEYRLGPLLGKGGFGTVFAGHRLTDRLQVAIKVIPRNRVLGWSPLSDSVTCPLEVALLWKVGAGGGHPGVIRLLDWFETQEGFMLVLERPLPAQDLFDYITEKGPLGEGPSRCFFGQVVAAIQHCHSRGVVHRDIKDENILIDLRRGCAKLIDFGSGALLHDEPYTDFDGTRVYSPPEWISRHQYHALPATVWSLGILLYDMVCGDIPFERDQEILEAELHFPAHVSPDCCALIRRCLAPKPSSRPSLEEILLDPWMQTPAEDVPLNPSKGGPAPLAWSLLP

CN1CCOc2c1c(N[C@H]1CC[C@@](C)(O)CC1)nn1c(-c3cccc(OC(F)(F)F)c3)nnc21 [Example 1, 1-Methyl-4-[6-methyl-3-(3-trifluoromethoxy-phenyl)-7,8-dihydro-6H-9-oxa-1,2,3a,4,6-pentaaza-cyclopenta[a]naphthalen-5-ylamino]-cyclohexanol]
IC50 (PIM-1): 1 to 5 nM
IC50 (PIM-2): 5 to 10 nM
IC50 (PIM-3): 5 to 10 nM

— patent US20250042918A1, “COMPOUNDS” (Fundación Del Sector Públlco Estatal Centro Nacional De …, priority 2021, published 2025)
